Experimental data taken from US9018195B2, “Use of 2,5-dihydroxybenzene sulfonic acid compounds for treating skin photoaging” (AmDerma Pharmaceuticals, LLC, priority 2004, dated 2015).

Experiments:
[1] = biological target: T1, fibroblast growth factor-1 (FGF-1) (Homo sapiens, UniProt P05230); test: Inhibition of fibroblast mitogenesis induced by FGF-1 in quiescent Balb/c 3T3 cultures; assay type: cell-based; details: quiescent cultures of Balb/c 3T3 fibroblasts; potassium salts, 2-acetoxy-5-hydroxybenzenesulfonate as calcium salt
T1 construct: host or cells: added to Balb/c 3T3 fibroblast cultures
T1 sequence (P05230 whole entry, species assumed): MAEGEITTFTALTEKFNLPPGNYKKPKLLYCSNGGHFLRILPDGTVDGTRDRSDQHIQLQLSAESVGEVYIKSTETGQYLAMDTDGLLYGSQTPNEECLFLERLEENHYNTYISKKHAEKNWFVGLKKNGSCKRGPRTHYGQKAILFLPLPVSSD
Protocol: The evaluated compounds were used in the form of potassium salt, except in the first case in which calcium salt was used. The experiments were carried out as described in Fernández-Tornero C et al. J Biol Chem, 2003.

[2] = biological target: T1, fibroblast growth factor-1 (FGF-1); test: Structural interaction with FGF-1 from diffraction of complex crystals; assay type: binding; details: electron density contoured at 1σ; acetoxyl groups kept when bound
Protocol: As of the diffraction from complex crystals of FGF-1: 2-acetoxy-5-hydroxybenzenesulfonic acid, FGF-1: 5-acetoxy-2-hydroxybenzenesulfonic acid and FGF-1: 2,5-diacetoxybenzenesulfonic acid, the complex structures were calculated and represented. In FIGS. 20, 21 and 22, representing the surface of the protein cloured according to its electrostatic potential (light grey: negative charge, dark grey: positive charge, white: areas with no charge), the interaction form of the 2-acetoxy-5-hydroxybenzenesulfonic acid, 5-acetoxy-2-hydroxybenzenesulfonic acid and 2,5-diacetoxybenzenesulfonic acid, respectively, with the FGF-1 may be observed.

[3] = tested on: rabbit subcutaneous fat preadipocytes; test: Proliferation of subcutaneous fat preadipocytes, crystal violet; assay type: cell-based; details: 72 hours
Protocol: The primary cultures of rabbit preadipocytes were obtained from the inguinal fat of New Zealand rabbits. Once the fat is removed, it is processed by mechanical disaggregation and enzymatic digestion with 0.075% type I collagenase (Gibco BRL, Paisley, Scotland, RU) for 30 minutes at 37°. The mature adipocytes are separated, removed by centrifugation (300×g, 5 min) and the cell sediment is selected. Then, the mononuclear cells with low cell density are isolated by density gradient centrifugation with Ficoll-Paque (Amersham Biosciences, Uppsala, Sweden). Once the low density mononuclear cells are obtained, they are seeded in a 75 cm^2 culture flask and cultured in an incubator at 37° C. with air containing 5% CO2, in an Eagle medium modified by Dulbecco (DMEM) (Gibco) with 10% of bovine fetal serum (Gibco) and 0.1% of antibiotic-antimicotic (Gibco). The culture medium is replaced 24 hours later to remove the cells present in the supernatant, and to select the cells adhered to the culture flask. […]
The rabbit preadipocytes proliferation experiments were carried out in 24-well plates. […] The proliferation of preadipocytes was evaluated 72 hours later, and at that moment the cells were fixed with 1% glutaraldehyde. The cellular proliferation was evaluated using the crystal violet method, by measuring the absorbance at a wave length of 595 nm.

mouse glioma C6 cells = test: Proliferation of glioma C6 cells, crystal violet; assay type: cell-based; details: 500 μM, 48 hours, potassium salts, p<0.001
Protocol: The cell line used was that of mouse glioma C6 cells. Once attached, the cells were treated o not treated (controls) with (5A-2HBS) (500 μM) or (2A-5HBS) (500 μM) and they were allowed to proliferate during 48 hours. After that, the proliferation of glioma cells was evaluated by staining the fixed cells with crystal violet. The number of cells is proportional to the amount of retained dye, which was spectrophotometrically determined by measuring absorbance at 595 nm after removing the dye from the cells.

actinic keratosis = test: Topical treatment of actinic keratosis lesions in patients; assay type: in vivo, human; details: for actinic keratosis: 2.5% by weight emulsion, twice a day, two lesions in the same patient (scalp)
Source text: An emulsion containing 2.5% by weight of 2,5-dihydroxybenzenesulfonic acid was used to treat two lesions of actinic keratosis in the same patient, as shown in FIGS. 4 and 5. […] Calcium salt of 2,5-dihydroxybenzenesulfonic acid was used.
(§1) In this study, 2,5-dihydroxybenzenesulfonic acid, potassium salt, formulated as 5% by weight in the form of cream has been used, since this type of formulation is a habitual procedure for topical treatments of the skin. Distilled water has been used as the aqueous phase of the cream. The oil phase thereof may comprise cetyl alcohol, stearyl alcohol or vaseline. Span (sorbitan monooleate) is an effective emulsifier to make the cream.
Active principle: 2,5-dihydroxybenzenesulfonic acid, potassium salt, 5% by weight.
Excipients: cetyl alcohol (2.5%), stearyl alcohol (2.5%), liquid vaseline (30%), white soft vaseline (20%), sorbitan monooleate (5%) and distilled water (q.s. to 100 g).

human photoaged skin = test: Topical treatment of human photoaged skin with cream; assay type: in vivo; details: 5% cream, potassium salt, twice a day for 3 months
Source text: as §1
Active principle: 2,5-dihydroxybenzenesulfonic acid, potassium salt, 5% by weight. Excipients: cetyl alcohol (2.5%), stearyl alcohol (2.5%), liquid vaseline (30%), white soft vaseline (20%), sorbitan monooleate (5%) and distilled water (q.s. to 100 g).
Lightening of skin hyperpigmentation after the application of 2,5-dihydroxybenzenesulfonic acid may justify the use thereof to treat melanic dyschromia with hyperpigmentation as occurs, among other pathologies, in the Mongolian spot, the nevus of Ota, the nevus of Ito, the nevus of Becker, ephelides (freckles), the lentigo malign melanoma, the café-au-lait macules or the melasma (chloasma).

seborrheic keratosis = test: Topical treatment of seborrheic keratosis; assay type: in vivo, human
Source text: (§2) Topical treatment with the above described cream (twice a day for 11 days) of human skin (basal conditions shown in FIG. 2A) results in a reduction of seborrheic keratosis (big circle) as well as of viral warts (small circle), as shown in FIG. 2B.
Another example of the effect of 2,5-dihydroxybenzenesulfonate on seborrheic keratosis is shown in FIG. 3, wherein the seborrheic keratosis is reduced due to the topical treatment on the affected area for 4 weeks, twice a day, with an emulsion containing the 2,5-dihydroxybenzenesulfonic acid, 2.5% by weight.

[4] = tested on: cell line of preadipocytes 3T3L1; test: Adipogenesis assay in preadipocytes, Oil Red O staining; assay type: cell-based
Protocol: The preadipocytes were seeded in a 6 well plate where they grew up to the confluence In a standard culture medium [Dulbecco's Essential Medium (DEM)], supplemented with 1.5 g/L of sodium bicarbonate, non essential aminoacids and 10% bovine fetal serum. […] The culture medium was renewed every two days. After seven days, the differentiation to adipocytes was initiated in the six wells by the addition of dexametasone ([…]), 3-isobutyl-1-methylxanthine (0.5 mM) and insuline (160 nM) during two days, followed by the substitution of the culture medium by another culture medium containing insuline (160 nM) during five days. […] The culture medium was renewed every two days.
12 days later, the adipogenesis was determined by staining with Oil Red O to check the cytoplasmic accumulation of triglycerides. The cells were washed with phosphate buffer (PBS), fixed with 4% paraformaldehyde and stained during thirty minutes with Oil Red O. Isopropanol was used to remove the dye from the cells to quantify the accumulation of lipids; the absorbance thereof was measured at 510 nm in a spectrophotometer.

hair growth = test: Effect of topical cream on hair growth; assay type: in vivo, human; details: 5% cream, potassium salt, twice a day for 3 months
Source text: 2,5-dihydroxybenzenesulfonic acid, potassium salt, formulated in the form of cream was used and its composition was the same as that used in example 1.

viral warts = test: Topical treatment of viral warts; assay type: in vivo, human; details: 5% cream, twice a day for 11 days
Source text: as §2

CC(=O)Oc1ccc(O)cc1S(=O)(=O)O [2A-5HBS, 2-acetoxy-5-hydroxybenzenesulfonic acid]
FGF-1 induced mitogenesis [1]: Inhibition of FGF-1 mitogenesis was observed
location of the compound bound to FGF-1 in the complex crystal [2]: located at a site very close to the site that, as described, is occupied by the 2,5-dihydroxybenzenesulfonic acid
concentration as of which a significant effect on preadipocyte proliferation is obtained [3]: 100 µM
proliferation of preadipocytes (absorbance at 595 nm) ([3]; DHBS 10 to 100 μM, 2A-5HBS 10 to 500 μM, concentration dependent): significantly inhibited
proliferation of glioma cells (absorbance at 595 nm) (mouse glioma C6 cells): caused the inhibition of the proliferation

O=S(=O)([O-])c1cc(O)ccc1O.[K+] [potassium 2,5-dihydroxybenzenesulfonate]
FGF-1 induced mitogenesis [1]: Inhibition of the mitogenesis

calcium 2,5-dihydroxybenzenesulfonate
actinic keratosis (actinic keratosis; after 4 weeks): the effect was even more evident
actinic keratosis (actinic keratosis; after 15 days): clearly reduced

CC(=O)Oc1ccc(OC(C)=O)c(S(=O)(=O)[O-])c1.[K+] [DABS, potassium 2,5-diacetoxybenzene sulfonate]
FGF-1 induced mitogenesis [1]: Inhibition of FGF-1 mitogenesis was observed
location of the compound bound to FGF-1 in the complex crystal [2]: located at a site very close to the site that, as described, is occupied by the 2,5-dihydroxybenzenesulfonic acid

O=S(=O)(O)c1cc(O)ccc1O [2,5-dihydroxybenzenesulfonic acid]
actinic lentigo areas of photoaged skin (human photoaged skin): disappearance of actinic lentigo areas
wrinkles of photoaged skin (human photoaged skin): reduction of the wrinkles
seborrheic keratosis (seborrheic keratosis; 2.5% by weight emulsion, twice a day for 4 weeks, facial): reduced
seborrheic keratosis (seborrheic keratosis; 5% cream, twice a day for 11 days): reduction in the seborrheic keratosis
number of preadipocytes differentiated in adipocytes ([4]; 3T3-L1 cells, 25 μM, during 12 hours (so in the source)): very significant reduction
hair in the area of application (hair growth): disappearance of hair in the area of application
viral warts (viral warts): reduction
actinic keratosis lesion in the ear (actinic keratosis; 5% cream, topical, after 12 days): reduction of the actinic keratosis
actinic keratosis lesion in the ear (actinic keratosis; 5% cream, topical, after 15 days): the lesion was cleared
actinic keratosis lesion in the nose (actinic keratosis; 5% cream, topical, after 30 days): reduction of the actinic keratosis

O=C(O)c1cc(O)ccc1O [gentisic acid, 2,5-dihydroxybenzoic acid]
accumulation of triglycerides (percentage of absorbance at 510 nm) versus untreated cells ([4]; 50 μM, p<0.05): significantly smaller
differentiation of the preadipocytes and adipogenesis ([4]; 3T3-L1 preadipocytes, 50 μM, two weeks): inhibits the differentiation of the preadipocytes and the adipogenesis

CC(=O)Oc1ccc(O)c(S(=O)(=O)[O-])c1.[K+] [5A-2HBS, potassium 5-acetoxy-2-hydroxybenzenesulfonate]
FGF-1 induced mitogenesis [1]: Inhibition of FGF-1 mitogenesis was observed
location of the compound bound to FGF-1 in the complex crystal [2]: located at a site very close to the site that, as described, is occupied by the 2,5-dihydroxybenzenesulfonic acid
proliferation of glioma cells (absorbance at 595 nm) (mouse glioma C6 cells): caused the inhibition of the proliferation
